Converted amounts (≈) assume the structure as drawn. Read-outs that look alike come from different tables or passages of the source.
Tests used:
[1] = tested on: Methicillin resistant Staphylococcus aureus (MRSA); test: Microtiter plate dilution MIC, MRSA; assay type: cell-based; details: 24 h; for MIC: Staphylococcus aureus, MRSA, read-out: Minimum inhibitory concentration (MIC) MRSA
Method: (§1) The microbial strains used in this study were Escherichia coli (ATCC 10798), Salmonella typhimurium (ATCC14028), Methicillin resistant Staphylococcus aureus (MRSA, Clinical isolate), Bacillus cereus (Toxigenic strain TS), and Candida albicans (ATCC 90028). Bacterial strains were stocked onto nutrient agar slant at 4 °C, and Candida albicans was stocked onto malt agar slant at 4 °C.
(§2) The microtiter plate dilution method was used to determine the MIC (minimum inhibitory concentration) of compounds under study. Sterile 96-well microplates (Nunc) were used for the assay. Stock compounds were dissolved in DMSO so that the final concentrations in micro wells were less than 1% DMSO and solvent controls were run at these concentrations. Positive controls of penicillin G and tetracycline (Oxoid, Hampshire, UK) were prepared at the following concentrations 2, 4, 8, 16, 31, 62.5, 125, and 250 μg/mL. 1% DMSO was used as a solvent control. Compounds were diluted to twice the desired initial test concentration (250 µg/mL) with Muller Hinton broth (MHB) (Oxoid). All wells, except the first were filled with MHB (50 μL). Compounds (100 μL) were added to the first well and serial two-fold dilutions were made down to the desired minimum concentration (2 μg/mL). An over-night culture of bacteria suspended in MHB was adjusted to turbidity equal to 0.5 McFarland standard. The plates were inoculated with bacterial suspension (50 μL/well) and incubated at 37 °C for 24 h. Then the turbidity was measured using micro-plate reader (Biotek) at 620 nm wavelength. The same procedure was used to determine the antifungal activity of compounds against Candida albicans. The medium used was malt extract broth. The yeast cells were suspended in 0.85% saline, with an optical density equivalent to 0.5 McFarland standard, and diluted 1:100 in malt extract broth to obtain the working concentration. After 24 h incubation with each compound, the turbidity was measured at 530 nm wavelength using a spectrophotometer (Biotek). Percentage inhibition for tested microorganisms was calculated using the following formula:
(§3) MIC was determined as the lowest concentration of the compound that causes complete inhibition (100%) of each microorganism.

Bacillus cereus = test: Microtiter plate dilution MIC, B. cereus; assay type: cell-based; details: 24 h; for MIC: Bacillus cereus, read-out: Minimum inhibitory concentration (MIC) B.c
Method: as §1, §2, §3

Hep-2 cells = test: MTT antiproliferative activity assay, Hep-2; assay type: cell-based; details: for IC50: Homo sapiens, read-out: IC50 Hep-2
Method: (§4) Hep-2 (larynx carcinoma, ATCC: CCL-23), MCF-7 (breast epithelial adenocarcinoma, ATCC: HTB-22), and Vero (African green monkey kidney, ATCC: CCL-81) cell lines were kindly provided by Dr. Mona Hassuneh (Department of Biological Sciences, University of Jordan). Cells were grown in Minimum Essential Medium Eagle (Gibco, Paisley UK) supplemented with 10% heat inactivated fetal bovine serum (Gibco, Paisley UK), 29 μg/mL L-glutamine, and 40 μg/mL gentamicin. Cells were incubated in a humidified atmosphere of 5% CO2 at 37 °C.
(§5) The antiproliferative activity of Inula viscosa compounds was measured using the MTT (3-(4,5-dimethylthiazol-2-yl)-2,5-diphenyltetrazolium bromide) assay (Promega, Madison, WI, USA). The assay detects the reduction of MTT by mitochondrial dehydrogenase to blue formazan product, which reflects the normal function of mitochondria and cell viability. Exponentially growing cells were washed and seeded at 17,000 cells/well for Hep-2 cell line and 11,000 cells/ well for MCF-7 cell line (in 200 μL of growth medium) in 96 well microplates (Nunc, Roskilde, Denmark). After 24 h incubation, a partial monolayer was formed then the media was removed and 200 μL of the medium containing the compound (initially dissolved in DMSO) were added and re-incubated for 48 h. Then 100 μL of the medium were aspirated and 15 μL of the MTT solution were added to the remaining medium (100 μL) in each well. After 4 h contact with the MTT solution, blue crystals were formed. One hundred μL of the stop solution were added and incubated further for 1 h.
(§6) Reduced MTT was assayed at 550 nm using a microplate reader (Biotek, Winooski, VT, USA). Control groups received the same amount of DMSO (0.1%).Untreated cells were used as a negative control while, cells treated with vincristine sulfate were used as a positive control. Eight concentrations (150, 100, 50, 20, 10, 5, 2, and 1 μg/mL) were prepared from each compound and tested against the three cell lines. IC50 values were calculated as the concentrations that show 50% inhibition of proliferation on any tested cell line. Stock solutions of the compounds were dissolved in (DMSO) then diluted with the medium and sterilized using 0.2 μm membrane filters. The toxicity of DMSO was determined and the final dilution of compounds used for treating the cells contained not more than 0.1% (non toxic concentration) DMSO. IC50 values were reported as the average of three replicates. The antiproliferative effect of the tested compounds was determined by comparing the optical density of the treated cells against the optical density of the control (cells treated with media containing 0.1% DMSO).

Escherichia coli = test: Microtiter plate dilution MIC, E. coli; assay type: cell-based; details: for MIC: Escherichia coli, read-out: Minimum inhibitory concentration (MIC) E.c
Method: as §1, §2, §3

Vero cells = test: MTT antiproliferative activity assay, Vero; assay type: cell-based, African green monkey; details: for IC50: Chlorocebus sabaeus, Vero, read-out: IC50 Vero
Method: as §4, §5, §6

Salmonella typhimurium = test: Microtiter plate dilution MIC, S. typhimurium; assay type: cell-based; details: for MIC: Salmonella enterica, ATCC 14028 / TYPHIMURIUM, read-out: Minimum inhibitory concentration (MIC) S.t
Method: as §1, §2, §3

MCF-7 cells = test: MTT antiproliferative activity assay, MCF-7; assay type: cell-based, human; details: for IC50: Homo sapiens, read-out: IC50 MCF-7
Method: as §4, §5, §6

Candida albicans = test: Microtiter plate dilution MIC, C. albicans; assay type: cell-based; details: for MIC: Candida albicans, read-out: Minimum inhibitory concentration (MIC) C.a
Method: as §1, §2, §3

[2] = clinical isolate, 100% inhibition
[3] = Toxigenic strain TS, 100% inhibition
[4] = MTT, 48 h treatment, average of three replicates
[5] = ATCC 10798, 24 h, 100% inhibition
[6] = ATCC14028, 24 h, 100% inhibition
[7] = ATCC 90028, malt extract broth, 24 h, 100% inhibition
[8] = HEp-2, MTT, 48 h treatment, average of three replicates
[9] = ATCC10798, ATCC 10798, 24 h, 100% inhibition
[10] = MCF7, MTT, 48 h treatment, average of three replicates
[11] = ATCC90028, ATCC 90028, malt extract broth, 24 h, 100% inhibition

Row | Compound | Minimum inhibitory concentration (MIC) MRSA [1, 2] [µg/mL] | Minimum inhibitory concentration (MIC) B.c (Bacillus cereus; [3]) [µg/mL] | IC50 Hep-2 (Hep-2 cells; [4]) [µg/mL] | Minimum inhibitory concentration (MIC) E.c (Escherichia coli; [5]) [µg/mL] | IC50 Vero (Vero cells; [4]) [µg/mL] | Minimum inhibitory concentration (MIC) S.t (Salmonella typhimurium; [6]) [µg/mL] | IC50 MCF-7 (MCF-7 cells; [4]) [µg/mL] | Minimum inhibitory concentration (MIC) C.a (Candida albicans; [7]) [µg/mL] | MIC [1, 2] [µg/mL] | MIC (Bacillus cereus; [3]) [µg/mL] | MIC (Escherichia coli; [9]) [µg/mL] | MIC (Salmonella typhimurium; [6]) [µg/mL] | also measured
1 | 2-Desacetoxyxanthinin | >250 | >250 | >150 | >250 | >150 | >250 | >150 | >250 |  |  |  |  | 
2 | C=C(C(=O)O)[C@@H]1CC[C@@]2(C)C[C@@H](O)C[C@@](C)(O)[C@@H]2C1 [2α-Hydroxyilicic acid] | >250 | >250 | >150 | >250 | >150 | >250 | >150 | >250 |  |  |  |  | 
3 | COc1cc(O)c2c(c1)O[C@H](c1ccc(O)c(O)c1)[C@@H](OC(C)=O)C2=O [3-O-Acetylpadmatin] | >250 | >250 | >150 | >250 | >150 | >250 | >150 | >250 |  |  |  |  | 
4 | C=C1C[C@@H]2OC(=O)[C@@H](C)[C@H]2C[C@@H]2[C@@H]1CC[C@@]2(C)O [11α,13-Dihydroinuviscolide] | >250 | >250 | >150 | >250 | >150 | >250 | >150 | >250 |  |  |  |  | 
5 | COc1c(O)cc2oc(-c3ccc(O)cc3)cc(=O)c2c1O [Hispidulin] |  |  |  |  |  |  |  |  |  |  |  |  | MIC [1]: > 250 µg/mL; MIC (Bacillus cereus): > 250 µg/mL; IC50 (Hep-2 cells; HEp-2, 48 h): 19.5 ± 1.06 µg/mL (≈ 64.9 µM); MIC (Escherichia coli; ATCC10798, 24 h): > 250 µg/mL; IC50 (Vero cells; 48 h): 105 ± 2.35 µg/mL (≈ 351 µM); MIC (Salmonella typhimurium; 24 h): > 250 µg/mL; IC50 (MCF-7 cells; MCF7, 48 h): 10.3 ± 1.85 µg/mL (≈ 34.5 µM); MIC (Candida albicans; ATCC90028, 24 h): > 250 µg/mL
6 | C=C(C(=O)O)[C@@H]1CC[C@@]2(C)CCC[C@@](C)(O)[C@@H]2C1 [Ilicic acid] |  |  |  |  |  |  |  |  | > 250 | > 250 | > 250 | > 250 | IC50 (Hep-2 cells; [8]): > 150 µg/mL; IC50 (Vero cells; [4]): > 150 µg/mL; IC50 (MCF-7 cells; [10]): > 150 µg/mL; MIC (Candida albicans; [11]): > 250 µg/mL
7 | C=C1C(=O)O[C@H]2CC(=C)[C@H]3CC[C@@](C)(O)[C@@H]3C[C@H]12 [Inuviscolide] |  |  |  |  |  |  |  |  | > 250 | > 250 | > 250 | > 250 | IC50 (Hep-2 cells; [8]): 148.8 ± 1.25 µg/mL (≈ 599 µM); IC50 (Vero cells; [4]): > 150 µg/mL; IC50 (MCF-7 cells; [10]): > 150 µg/mL; MIC (Candida albicans; [11]): > 250 µg/mL
8 | COc1c(O)cc2oc(-c3ccc(O)c(O)c3)cc(=O)c2c1O [Nepetin] | 250 (≈ 790 µM) | >250 | 11.33 ± 0.98 (≈ 35.8 µM) | >250 | 103.54 ± 2.82 (≈ 327 µM) | >250 | 5.87 ± 1.36 (≈ 18.6 µM) | >250 |  |  |  |  | 
9 | C[C@@H]1[C@H](O)[C@@H](C)/C=C/C=C/CC/C=C/C=C/C=C/C=C/C(O[C@H]2O[C@H](C)[C@@H](O)[C@H](N)[C@@H]2O)CC2O[C@](O)(CC(O)C(O)CCC(O)CC(O)CC(O)CC(=O)O[C@H]1C)CC(O)C2C(=O)O (stereo partly shown) [Nystatin, reference compound] |  |  |  |  |  |  |  | 25 (≈ 27 µM) |  |  |  |  | 
10 | CC1(C)S[C@@H]2[C@H](NC(=O)Cc3ccccc3)C(=O)N2[C@H]1C(=O)O [Penicillin G, reference compound] |  |  |  |  |  |  |  |  | > 250 | > 250 | 125 (≈ 374 µM) | 125 (≈ 374 µM) | 
11 | CN(C)[C@@H]1C(O)=C(C(N)=O)C(=O)[C@@]2(O)C(O)=C3C(=O)c4c(O)cccc4[C@@](C)(O)[C@H]3C[C@@H]12 [Tetracycline, reference compound] |  |  |  |  |  |  |  |  | 125 (≈ 281 µM) | 2 (≈ 4.5 µM) | 150 (≈ 338 µM) | 4 (≈ 9 µM) | 
